In patent publication US20170362243A1, “BIARYLETHER IMIDAZOPYRAZINE BTK INHIBITORS” (MERCK SHARP & DOHME CORP., priority 2014, published 2017) one finds IC50 data, which are given here for four compounds.

The target of the test is T1, BTK enzyme (recombinant full-length BTK, hBTK) (Homo sapiens, UniProt Q06187).
T1 construct: recombinant protein from baculovirus-transfected Sf9 cells: full-length BTK, 6HIS-tag cleaved; 6HIS (cleaved yes); made in house; host or cells: baculovirus-transfected Sf9 cells
Put plainly: Btk enzyme activity assay, LANCE TR-FRET. Type of test: biochemical. The following applies: 50 pM hBTK, 2 μM biotin-A5-peptide, 25 μM ATP, 60 minute compound & enzyme incubation, read-out: BTK binding IC50. As to the method:
BTK enzymatic activity was determined with the LANCE (Lanthanide Chelate Excite) TR-FRET (Time-resolved fluorescence resonance energy transfer) assay. In this assay, the potency (IC50) of each compound was determined from an eleven point (1:3 serial dilution; final compound concentration range in assay from 1 μM to 0.017 nM) titration curve using the following outlined procedure. To each well of a black non-binding surface Corning 384-well microplate (Corning Catalog #3820), 5 nL of compound (2000 fold dilution in final assay volume of 10 μL) was dispensed, followed by the addition of 7.5 μL of 1× kinase buffer (50 mM Hepes 7.5, 10 mM MgCl2, 0.01% Brij-35, 1 mM EGTA, 0.05% BSA & 1 mM DTT) containing 5.09 pg/μL (66.67 pM) of BTK enzyme (recombinant protein from baculovirus-transfected Sf9 cells: full-length BTK, 6HIS-tag cleaved). Following a 60 minute compound & enzyme incubation, each reaction was initiated by the addition of 2.5 μL 1× kinase buffer containing 8 μM biotinylated “A5” peptide (Biotin-EQEDEPEGDYFEWLE-NH2) (SEQ.ID.NO.: 1), and 100 μM ATP. The final reaction in each well of 10 μL consists of 50 pM hBTK, 2 μM biotin-A5-peptide, and 25 μM ATP. Phosphorylation reactions were allowed to proceed for 120 minutes. Reactions were immediately quenched by the addition of 20 uL of 1× quench buffer (15 mM EDTA, 25 mM Hepes 7.3, and 0.1% Triton X-100) containing detection reagents (0.626 nM of LANCE-Eu-W1024-anti-phosphoTyrosine antibody, PerkinElmer and 86.8 nM of Streptavidin-conjugated Dylight 650, Dyomics/ThermoFisher Scientific). After 60 minutes incubation with detection reagents, reaction plates were read on a PerkinElmer EnVision plate reader using standard TR-FRET protocol. Briefly, excitation of donor molecules (Eu-chelate:anti-phospho-antibody) with a laser light source at 337 nm produces energy that can be transferred to Dylight-650 acceptor molecules if this donor:acceptor pair is within close proximity. Fluorescence intensity at both 665 nm (acceptor) and 615 nm (donor) are measured and a TR-FRET ratio calculated for each well (acceptor intensity/donor intensity). IC50 values were determined by 4 parameter robust fit of TR-FRET ratio values vs. (Log10) compound concentrations.
The following Table 3 provides specific IC50 values for all the examples. The IC50 values set forth below were determined according to Assay method described above.

T1 sequence (Q06187 whole entry): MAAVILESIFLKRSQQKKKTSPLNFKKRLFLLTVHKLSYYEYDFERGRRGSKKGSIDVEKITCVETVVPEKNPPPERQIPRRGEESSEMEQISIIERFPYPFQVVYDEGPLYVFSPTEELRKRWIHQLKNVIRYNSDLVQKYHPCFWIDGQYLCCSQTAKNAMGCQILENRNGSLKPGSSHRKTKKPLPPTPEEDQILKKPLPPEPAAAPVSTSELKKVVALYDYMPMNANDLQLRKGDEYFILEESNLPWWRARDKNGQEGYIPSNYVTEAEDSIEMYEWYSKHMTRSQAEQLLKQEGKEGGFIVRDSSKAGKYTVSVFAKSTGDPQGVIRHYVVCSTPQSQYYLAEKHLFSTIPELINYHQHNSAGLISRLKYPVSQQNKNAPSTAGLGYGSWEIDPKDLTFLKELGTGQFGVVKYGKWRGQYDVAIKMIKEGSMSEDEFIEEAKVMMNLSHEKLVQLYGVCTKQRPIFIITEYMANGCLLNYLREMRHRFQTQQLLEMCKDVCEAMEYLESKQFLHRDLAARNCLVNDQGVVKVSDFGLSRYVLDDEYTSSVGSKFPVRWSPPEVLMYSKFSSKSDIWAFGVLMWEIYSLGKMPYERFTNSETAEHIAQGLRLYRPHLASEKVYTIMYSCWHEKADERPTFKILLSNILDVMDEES

Consider `Nc1nccn2c(C34C=CC(C(=O)O)(CC3)CC4)nc(-c3ccc(Oc4ccccc4)cc3)c12` [Example 22, 4-[8-amino-1-(4-phenoxyphenyl)imidazo[1,5-a]pyrazin-3-yl]bicyclo[2.2.2]oct-2-ene-1-carboxylic acid], for which the half-maximal inhibitory concentration (IC50) is 0.26 nM. In the case of `Nc1nccn2c(C34C5C6C3C3C4C5C63C(=O)O)nc(-c3ccc(Oc4ccccc4)cc3)c12` (stereo not shown) [Example 23, 4-(8-amino-1-(4-phenoxyphenyl)imidazo[1,5-a]pyrazin-3-yl)cubane-1-carboxylic acid] it was 0.3 nM; in that of `Nc1nccn2c(C3(C(=O)O)CCOCC3)nc(-c3ccc(Oc4ccccc4)cc3)c12` [Example 24, 4-[8-amino-1-(4-phenoxyphenyl)imidazo[1,5-a]pyrazin-3-yl]tetrahydro-2H-pyran-4-carboxylic acid], 79.6 nM; in that of `C[C@]1(C(=O)O)CC[C@H](c2nc(-c3ccc(Oc4ccccc4)cc3)c3c(N)nccn32)CC1` [Example 25, Trans-4-[8-amino-1-(4-phenoxyphenyl)imidazo[1,5-a]pyrazin-3-yl]-1-methylcyclohexane carboxylic acid], 12.3 nM.

In general, IC50 refers to the midpoint of a concentration-inhibition curve.
